# In patent publication US12516026B2, “Cabozantinib compositions and methods of use” (priority 2023, dated 2026):
# Legend:
# [1] = single dose, healthy human subjects, cited from earlier work
# [2] = Example 25: impurity profile of cabozantinib lauryl sulfate lots stored at 40° C. and 75% relative humidity; format: physicochemical; details: 40° C./75% RH
Compound,Related Substance 1 Int2-Imp1 ([2]; 0 months) [%],Related Substance 1 Int3-Imp5 ([2]; 0 months) [%],Related Substance 1 Total imp. ([2]; 0 months) [%],Related Substance 1 Unidentified imp ([2]; 0 months) [%],Related Substance 2 Int1 ([2]; 0 months) [ppm],Water Content ([2]; 0 months) [%],Related Substance 1 Int2-Imp1 ([2]; 1 month) [%],Related Substance 1 Int3-Imp5 ([2]; 1 month) [%],Related Substance 1 Total imp. ([2]; 1 month) [%],Related Substance 2 Int1 ([2]; 1 month) [ppm],Related Substance 1 Int2-Imp1 ([2]; 3 months) [%],Related Substance 1 Int3-Imp5 ([2]; 3 months) [%],Related Substance 1 Total imp. ([2]; 3 months) [%],Related Substance 2 Int1 ([2]; 3 months) [ppm],Water Content ([2]; 3 months) [%],also measured
^14C-cabozantinib,,,,,,,,,,,,,,,,radioactivity recovered in feces ([1]; 48-day collection period): approximately 54%; radioactivity recovered in urine ([1]; 48-day collection period): ~27%; total administered radioactivity recovered ([1]; within a 48-day collection period): approximately 81%
"CCCCCCCCCCCCOS(=O)(=O)O.COc1cc2nccc(Oc3ccc(NC(=O)C4(C(=O)Nc5ccc(F)cc5)CC4)cc3)c2cc1OC [Example 25B, cabozantinib lauryl sulfate]",0.12,<0.05,0.20,0.06,2.77,0.19,0.07,<0.05,0.09,6.28,0.06,<0.05,0.11,6.50,0.10,Related Substance 1 Int3-Imp2 ([2]; 3 months): <0.05%; Related Substance 1 Int2-Imp1 ([2]; 6 months): 0.10%; Related Substance 1 Int3-Imp5 ([2]; 6 months): <0.05%; Related Substance 1 Int3-Imp7 ([2]; 6 months): <0.05%; Related Substance 1 Total imp. ([2]; 6 months): 0.10%; Related Substance 1 Unidentified imp ([2]; 6 months): <0.05%; Related Substance 2 Int1 ([2]; 6 months): 7.34 ppm
"CCCCCCCCCCCCOS(=O)(=O)O.COc1cc2nccc(Oc3ccc(NC(=O)C4(C(=O)Nc5ccc(F)cc5)CC4)cc3)c2cc1OC [Example 25C, cabozantinib lauryl sulfate]",0.10,0.05,0.24,<0.05,5.22,0.31,0.11,<0.05,0.24,5.98,0.13,<0.05,0.29,6.99,0.05,Related Substance 1 Int3-Imp7 ([2]; 0 months): <0.05%; Related Substance 1 Int3-Imp7 ([2]; 1 month): 0.05%; Related Substance 1 Unidentified imp ([2]; 1 month): <0.05%; Water Content ([2]; 1 month): 0.29%; Related Substance 1 Int2-Imp1 ([2]; 2 months): 0.13%; Related Substance 1 Int3-Imp5 ([2]; 2 months): <0.05%; Related Substance 1 Int3-Imp7 ([2]; 2 months): <0.05%; Related Substance 1 Total imp. ([2]; 2 months): 0.21%; Related Substance 2 Int1 ([2]; 2 months): 6.07 ppm; Water Content ([2]; 2 months): 0.068%; Related Substance 1 Int3-Imp7 ([2]; 3 months): <0.05%; Related Substance 1 Unidentified imp ([2]; 3 months): <0.05%
